In patent US20230201151A1, “FORMULATIONS AND METHODS FOR TREATING ACUTE RESPIRATORY DISTRESS SYNDROME, ASTHMA, OR ALLERGIC RHINITIS” (UNIVERSITY OF FLORIDA RESEARCH FOUNDATION, INC., priority 2020, published 2023):

Experiments:
Type in all cases: cell-based, human
[1] = tested on: ENaC; experiment: Benzamil-sensitive Isc (ENaC activity) in differentiated HBECs, Ussing chamber
Description: (§1) High individual variation in benzamil-sensitive current and TEER in HBECs. In an Ussing chamber-based experimental design, basal short-circuit current (Isc) and transepithelial electrical resistance (TEER) were recorded in differentiated HBECs from two lung donors that were grown on snapwells at an air-liquid interface for 28 to 35 days. Benzamil, a potent ENaC blocker was used to determine ENaC activity by calculating benzamil-sensitive Isc from changes in Isc that occur 15 minutes after adding 6 μM benzamil to the apical side of cells. […] Therefore, normalized data were used for all subsequent experiments for statistical analyses relating to FIGS. 13-18.
(§2) Basal treatment with cytokines [IL-13 (Abcam), IL-4 (PeproTech), TNF-α, IFN-γ and TGF-β1 (R&D Systems)] diluted in ALI medium started as early as day 14 post differentiation. Individual cytokines or cytokine cocktails were added to the culture medium at the desired concentrations and cells were incubated with the cytokines for a maximum of 16 days. ALI medium containing cytokines was changed every two days. Age-matched HBECs were assigned to the following treatment groups:
(§3) II Time-dependent studies: These studies were done using a concentration that ensured maximum inhibition of benzamil-sensitive Isc and TEER. HBECs were treated with respective cytokines for 2, 4, 6, 8, 10, 12, 14, or 16 days. IFN-γ, TNF-α or TGF-β1 at 1 ng/mL, IL-13 at 20 ng/mL and IL-4 at 2 ng/mL were used.
(§4) III Cytokine cocktails: were prepared using IFN-γ and TNF-α at 0.05, 0.5, 2.5, 5 and 10 ng/mL while TNF-α, IFN-γ and TGF-β1 at 1 ng/mL for each of the cytokines was added to the culture media for 7 days.
(§5) Ussing chamber experiments: Snapwells with differentiated HBECs that were incubated with cytokines or age-matched HBECs without cytokine exposure were mounted in Ussing chambers (Physiologic Instruments), and cells were either bathed in isotonic ringer solution containing 113.8 mM Na^+, 93.6 mM Cl^−, 25 mM HCO3^−, 5.2 mM K^+, 2.4 mM HPO4^−, 0.4 mM H2PO4^−, 1.2 mM Mg^2+, 1.2 mM Ca^2+, and 75 mM mannitol, or in AA-EC01. Glucose (5 mM) was added to the basal side, and chambers were bubbled with 95% O2 and 5% CO2 at 37° C. AA-EC01 contained 8 mM lysine, 8 mM tryptophan, 8 mM arginine, 8 mM glutamine, and 1.2 mM tyrosine, and AANC contained 8 mM leucine, 8 mM cysteine, 8 mM isoleucine, 8 mM aspartic acid and 8 mM glutamate (Ajinomoto), both diluted in an electrolyte solution containing 113.8 mM Na^t, 93.6 mM Cl^−, 25 mM HCO3^−, 5.2 mM K^+, 2.4 mM HPO4^−, 0.4 mM H2PO4^−, 1.2 mM Mg′, 1.2 mM Ca^2+ and 40 mM mannitol at pH 7.4 and 300 mOsm. Cell cultures were allowed to equilibrate in the Ussing chambers for 30 minutes while continuously voltage clamped to 0 mV. Basal short circuit current (Isc) and transepithelial electrical resistance (TEER) were recorded at 30-second intervals, and benzamil-sensitive Isc was calculated from the difference of basal Isc recorded after 30 minutes and Isc measured at 15 minutes after adding 6 μM of benzamil (ThermoFisher) to the apical side.
(§6) Statistical analysis: Results are presented as mean±standard error of mean (SEM). Analyses were performed with OriginPro 2018 software package. For each treatment group, values were tested for normal distribution using the Shapiro-Wilk normality test. […] The values were normalized to controls within the group, and data were pooled for comparison between groups. Kruskal-Wallis test was used for comparing the overall effect of ringer, AA-EC01 and AANC on benzamil-sensitive Isc and TEER, and Mann Whitney U test was used for pairwise comparison within the group and for comparison between basal values for each cytokine at zero ng/mL or day zero with each concentration and time period studied. P<0.05 was considered significant, and NS indicates not significant.

[2] = tested on: HBECs; experiment: TEER (epithelial barrier function) in differentiated HBECs, Ussing chamber
Description: as §1, §2, §3, §4, §5, §6

[3] = tested on: HBEC; experiment: Barrier function in IL-13-treated differentiated HBEC, Examples 1-2; conditions: IL-13 20 ng/mL
Description: Experimental design: IL-13 treatment with 20 ng/mL media for 4 and 14 days. Ussing chamber experiment in Basic Ringer (5 mM glucose in basolateral side).
To investigate the importance of ENaC during inflammation and explore how its activity is modulated during the evolution of ARDS, the present inventors used primary cultures of human bronchial epithelial cells (HBEC) harvested from normal human lungs, which had been differentiated in vitro in an air-media interphase (air on the apical side and media on the basolateral side) for 30 days. Differentiated HBEC were used for electrophysiology experiments to evaluate the effect of IL-13 on these cells. […] Similarly, IL-13 (20 ng/mL) caused a maximum reduction in barrier function on day 8 of exposure.

Substance: IL-13: Th2 cytokine (Abcam) added to HBEC culture medium
- benzamil-sensitive Isc, normalized to control ([1]; IL-13 0.1 ng/mL, 14 days): 50.9±9.6%
- day by which benzamil-sensitive Isc was completely suppressed ([1]; IL-13 20 ng/mL, 16-day incubation): ≤ 8 days
- benzamil-sensitive Isc, of baseline value ([1]; IL-13 20 ng/mL, day 2): 25.0±5%
- concentration at which benzamil-sensitive Isc was completely abolished ([1]; IL-13, 14 days): 8 ng/mL
- TEER, normalized to control ([2]; IL-13 2 ng/mL, 14 days): 59.9±7.6%
- TEER, normalized to control (maximum reduction) ([2]; IL-13 4 ng/mL, 14 days): 41.3±6.9%
- TEER, normalized to control (maximum reduction) ([2]; IL-13 20 ng/mL, day 10): 48.7±3.6%
- day of maximum reduction in barrier function [3]: 8 days
